melting point [°C]	SMILES
234 to 237	CS(=O)(=O)N1CC2(CCN(C(=O)Nc3cnc(-c4ccccc4)cn3)CC2)c2ccc(F)cc21 [Compound 139, 6-fluoro-1-methylsulfonyl-N-(5-phenyl-2-pyrazinyl)spiro[indoline-3,4′-piperidine]-1′-carboxamide]
200 to 202	CCS(=O)(=O)N1CC2(CCN(C(=O)Nc3cn(-c4cccc(F)c4)cn3)CC2)c2ccccc21 [Compound 203, 1-ethylsulfonyl-N-[1-(3-fluorophenyl)imidazol-4-yl]spiro[indoline-3,4′-piperidine]-1′-carboxamide]
215.5 to 215.8	CS(=O)(=O)N1CC2(CCN(C(=O)Nc3cnc(-c4ccccc4)cn3)CC2)c2cc(F)ccc21 [Compound 202, 5-fluoro-1-methylsulfonyl-N-(5-phenyl-2-pyrazinyl)spiro[indoline-3,4′-piperidine]-1′-carboxamide]
211 to 214	CCS(=O)(=O)N1CC2(CCN(C(=O)Nc3cnc(-c4ncns4)cn3)CC2)c2ccccc21 [Compound 153, 1-ethylsulfonyl-N-[5-(1,2,4-thiadiazol-5-yl)-2-pyrazinyl]spiro[indoline-3,4′-piperidine]-1′-carboxamide]
180 to 181.5	CCS(=O)(=O)N1CC2(CCN(C(=O)Nc3cn(-c4ccccc4F)cn3)CC2)c2ccccc21 [Compound 204, 1-ethylsulfonyl-N-[1-(2-fluorophenyl)imidazol-4-yl]spiro[indoline-3,4′-piperidine]-1′-carboxamide]
178.3 to 178.5	CCS(=O)(=O)N1CC2(CCN(C(=O)Nc3cc(-c4ccc(Cl)cc4)on3)CC2)c2ccccc21 [Compound 143, N-[5-(4-chlorophenyl)isoxazol-3-yl]-1-ethylsulfonylspiro[indoline-3,4′-piperidine]-1′-carboxamide]
224 to 225	Cc1ccc2nc(NC(=O)N3CCC4(CC3)CN(S(C)(=O)=O)c3ccccc34)cnc2c1 [Compound 130, 1-methylsulfonyl-N-(6-methylquinoxalin-2-yl)spiro[indoline-3,4′-piperidine]-1′-carboxamide]
122 to 123	CS(=O)(=O)N1CC2(CCN(C(=O)Nc3ncc(-c4ccccc4)cn3)CC2)c2ccccc21 [Compound 115, 1-methylsulfonyl-N-(5-phenyl-2-pyrimidinyl)spiro[indoline-3,4′-piperidine]-1′-carboxamide]
223 to 224	CCS(=O)(=O)N1CC2(CCN(C(=O)Nc3cnc(-c4nncs4)cn3)CC2)c2cc(F)ccc21 [Compound 155, 1-ethylsulfonyl-5-fluoro-N-[5-(1,3,4-thiadiazol-2-yl)-2-pyrazinyl]spiro[indoline-3,4′-piperidine]-1′-carboxamide]
224	CS(=O)(=O)N1CC2(CCN(C(=O)Nc3ccc(-c4ccccc4)nc3)CC2)c2ccccc21 [Compound 114, 1-methylsulfonyl-N-(2-phenyl-5-pyridyl)spiro[indoline-3,4′-piperidine]-1′-carboxamide]
243 to 244	CS(=O)(=O)N1CC2(CCN(C(=O)Nc3nc4cc(F)ccc4s3)CC2)c2ccccc21 [Compound 129, N-(5-fluorobenzothiazol-2-yl)-1-methylsulfonylspiro[indoline-3,4′-piperidine]-1′-carboxamide]
228 to 230	CCS(=O)(=O)N1CC2(CCN(C(=O)Nc3cnc(-c4nncs4)cn3)CC2)c2ccc(F)cc21 [Compound 154, 1-ethylsulfonyl-6-fluoro-N-[5-(1,3,4-thiadiazol-2-yl)-2-pyrazinyl]spiro[indoline-3,4′-piperidine]-1′-carboxamide]
232 to 234	CS(=O)(=O)N1CC2(CCN(C(=O)Nc3cn(-c4cccc(Cl)c4)cn3)CC2)c2ccccc21 [Compound 127, N-[1-(3-chlorophenyl)imidazol-4-yl]-1-methylsulfonylspiro[indoline-3,4′-piperidine]-1′-carboxamide]
226 to 227	NS(=O)(=O)N1CC2(CCN(C(=O)Nc3cc(-c4ccccc4)no3)CC2)c2ccccc21 [Compound 402, N-(3-phenylisoxazol-5-yl)-1-sulfamoylspiro[indoline-3,4′-piperidine]-1′-carboxamide]
139 to 140	CCS(=O)(=O)N1CC2(CCN(C(=O)Nc3cn(-c4ccccc4)cn3)CC2)c2ccccc21.Cl
214	CS(=O)(=O)N1CC2(CCN(C(=O)Nc3ccc(-c4ccccc4)cn3)CC2)c2ccccc21 [Compound 112, 1-methylsulfonyl-N-(5-phenyl-2-pyridyl)spiro[indoline-3,4′-piperidine]-1′-carboxamide]
251 to 253	CS(=O)(=O)N1CC2(CCN(C(=O)Nc3cnc(-c4ccccc4)nc3)CC2)c2ccccc21 [Compound 113, 1-methylsulfonyl-N-(2-phenyl-5-pyrimidinyl)spiro[indoline-3,4′-piperidine]-1′-carboxamide]
140 to 141	CCS(=O)(=O)N1CC2(CCN(C(=O)Nc3cn(-c4ccccc4)cn3)CC2)c2cc(F)ccc21.Cl

Continued, molecule first:

SMILES	melting point [°C]
CN(C)C(=O)N1CC2(CCN(C(=O)Nc3nnc(-c4ccccc4)s3)CC2)c2ccccc21 [Compound 800, 1-Dimethylcarbamoyl-N-(5-phenyl-1,3,4-thiadiazol-2-yl)spiro[indoline-3,4′-piperidine]-1′-carboxamide]	267
CS(=O)(=O)N1CC2(CCN(C(=O)Nc3cnc(-c4ccccn4)cn3)CC2)c2ccccc21 [Compound 104, 1-methylsulfonyl-N-[5-(2-pyridyl)-2-pyrazinyl]spiro[indoline-3,4′-piperidine]-1′-carboxamide]	234 to 235
CS(=O)(=O)N1CC2(CCN(C(=O)Nc3ccc(-c4nccs4)cc3)CC2)c2ccccc21 [Compound 111, 1-methylsulfonyl-N-[4-(2-thiazolyl)phenyl]spiro[indoline-3,4′-piperidine]-1′-carboxamide]	143.2 to 147.4
Cc1cccc2ccc(NC(=O)N3CCC4(CC3)CN(S(C)(=O)=O)c3ccccc34)nc12 [Compound 131, 1-methylsulfonyl-N-(8-methylquinolin-2-yl)spiro[indoline-3,4′-piperidine]-1′-carboxamide]	219 to 220
COc1cccc2oc(NC(=O)N3CCC4(CC3)CN(S(C)(=O)=O)c3ccccc34)nc12 [Compound 128, N-(4-methoxybenzoxazol-2-yl)-1-methylsulfonylspiro[indoline-3,4′-piperidine]-1′-carboxamide]	195 to 199
CS(=O)(=O)N1CC2(CCN(C(=O)Nc3ccc(C(=O)c4ccccc4)cc3)CC2)c2ccccc21.Cl	222 to 225
CS(=O)(=O)N1CC2(CCN(C(=O)Nc3cnc(-c4ncns4)cn3)CC2)c2cc(F)ccc21 [Compound 151, 5-fluoro-1-methylsulfonyl-N-[5-(1,2,4-thiadiazol-5-yl)-2-pyrazinyl]spiro[indoline-3,4′-piperidine]-1′-carboxamide]	239 to 240
COc1ccccc1-c1cnc(NC(=O)N2CCC3(CC2)CN(S(C)(=O)=O)c2ccccc23)cn1 [Compound 102, N-[5-(2-methoxyphenyl)-2-pyrazinyl]-1-methylsulfonylspiro[indoline-3,4′-piperidine]-1′-carboxamide]	186 to 188
CS(=O)(=O)N1CC2(CCN(C(=O)Nc3cc(-c4ccccc4)no3)CC2)c2cccnc21 [Compound 1402, 7-aza-N-(3-phenyl-5-isoxazolyl)-1-methylsulfonylspiro[indoline-3,4′-piperidine]-1′-carboxamide]	211 to 212
CS(=O)(=O)N1CC2(CCN(C(=O)Nc3cc4cc(Cl)ccc4[nH]3)CC2)c2ccccc21 [Compound 135, N-(5-chlorobenzoazol-2-yl)-1-methylsulfonylspiro[indoline-3,4′-piperidine]-1′-carboxamide]	172 to 176
NS(=O)(=O)N1CC2(CCN(C(=O)Nc3nnc(-c4ccccc4)s3)CC2)c2ccccc21 [Compound 400, N-(5-phenyl-1,3,4-thiadiazol-2-yl)-1-sulfamoylspiro[indoline-3,4′-piperidine]-1′-carboxamide]	> 300
CS(=O)(=O)N1CC2(CCN(C(=O)Nc3ccc(-c4ccncc4)cc3)CC2)c2ccccc21	272 to 274
CS(=O)(=O)N1CC2(CCN(C(=O)Nc3cnc(-c4nncs4)cn3)CC2)c2ccccc21 [Compound 146, 1-methylsulfonyl-N-[5-(1,3,4-thiadiazol-2-yl)-2-pyrazinyl]spiro[indoline-3,4′-piperidine]-1′-carboxamide]	247 to 249
CS(=O)(=O)N1CC2(CCN(C(=O)Nc3cnc(-c4nncs4)cn3)CC2)c2ccc(F)cc21 [Compound 148, 6-fluoro-1-methylsulfonyl-N-[5-(1,3,4-thiadiazol-2-yl)-2-pyrazinyl]spiro[indoline-3,4′-piperidine]-1′-carboxamide]	242 to 243
CS(=O)(=O)N1CC2(CCN(C(=O)Nc3cnc(-c4ncns4)cn3)CC2)c2ccccc21 [Compound 147, 1-methylsulfonyl-N-[5-(1,2,4-thiadiazol-5-yl)-2-pyrazinyl]spiro[indoline-3,4′-piperidine]-1′-carboxamide]	234 to 238
CC(=O)c1ccc(NC(=O)N2CCC3(CC2)CN(S(N)(=O)=O)c2ccccc23)cc1 [Compound 300, N-(4-acetylphenyl)-1-sulfamoylspiro[indoline-3,4′-piperidine]-1′-carboxamide]	233 to 236
C=CCc1cnc(NC(=O)N2CCC3(CC2)CN(S(C)(=O)=O)c2ccccc23)cn1 [Compound 105, 1-methylsulfonyl-N-[5-(2-propenyl)-2-pyrazinyl]spiro[indoline-3,4′-piperidine]-1′-carboxamide]	180.5 to 182.7
CCc1nc(-c2ccc(NC(=O)N3CCC4(CC3)CN(S(C)(=O)=O)c3ccccc34)cc2)cs1 [Compound 107, N-[4-(2-ethyl-4-thiazolyl)phenyl]-1-methylsulfonylspiro[indoline-3,4′-piperidine]-1′-carboxamide]	242 to 242.5

Reference: patent US6495559B2, “NPY Y5 receptor antagonists” (Merck & Co., Inc., priority 1998, dated 2002)
